What was measured:
HUVECs = experiment: HUVEC tube formation assay; format: cell-based, human
Method: For comparing the ability of various CEP-derivatives to promote tube formation (FIG. 2A) HUVECs were seeded on Matrigel-coated 48 well plates (BD Bioscience). The DMEM-F12 medium (Media lab, Cleveland Clinic, Cleveland, Ohio) was supplemented with various CEP-derivatives as indicated and incubated with cultured HUVECs at 37° C. for 8 h. Tube formation by HUVECs was observed using a phase contrast inverted microscope. Two independent assays were performed by two operators, one used PBS as control and the other used DPPE vesicles as control. The data were quantified either by measuring the length of tubes or by the number of branches. For testing the effects of oxPAPC, a TLR2 inhibitor, (FIG. 2C) or TLR2 knockdown (FIG. 2D) on the ability of CEP-PE to promote tube formation, growth factor-reduced (GFR) basement membrane extract (Cultrex BME, Trevigen, Gaithersburg, Md.; 175 μl/well) was added to the wells of an ice-cold 48-well plate and then incubated at 37° C. for 1 h to allow the gel to solidify. Overnight-starved, trypsin detached and extensively washed HUVECs (2.5×10^4 cells/well; Promocell, GmbH, Heidelberg, Germany) in a basal Growth Medium 2 (GM2; Promocell, GmbH) were seeded onto the BME coated wells. […] They were further thoroughly washed three times with GM2 basal medium, counted and seeded onto BME coated wells. […]

[1] = molecular target: T1, recombinant mouse TLR2-Fc fusion protein (Mus musculus, UniProt Q9QUN7); experiment: Competitive binding of CEP-PE vs CEP-HSA to recombinant mouse TLR2-Fc protein (ELISA); conditions: vesicles 0 to 125 μM; coated CEP-HSA; mTLR2-Fc 1 μg/ml
T1 construct: purchased R&D systems (Minneapolis, Minn.)
Method: Small unilamellar vesicles of CEP-DPPE (125 μM) in phosphate buffered saline (PBS) were prepared by extruding (20 times) the hydrated phospholipids through a 0.1 μm polycarbonate filter using an Avanti Mini-Extruder (Avanti Polar Lipids, Inc., Alabaster, Ala.). The resulting solution was diluted to various concentrations by addition of PBS. To a 96-well ELISA plate, 100 μl of 5 μM CEP in CEP-HSA protein in PBS solution was added into each well and the plate was incubated at 37° C. for 1 h. PBS (100 μl) was used as control. Then the wells were washed with PBS and the non-binding sites on wells were blocked with 350 μL of 4% bovine serum albumin (BSA) in PBS buffer for 1 h at 37° C. blocking was completed, a mixture of recombine-ant mouse TLR2-Fc protein at a fixed concentration (1 μg/ml, in 1% BSA-PBS) with an equal volume of CEP-PE vesicles at concentrations from 0 to 125 μM was added to each well, and the plate was allowed to incubate for 1 h at 37° C. DPPE vesicle solutions at 0, 50, 75 and 120 μM concentration, prepared by sonication, were used as parallel samples. After washing the plate with PBS containing 0.1% Tween-20 (PBST) buffer, 100 μL of 1:2,000 diluted goat anti-human Fc antibody in PBST buffer was added to each well. […] After an additional 30 min incubation, the absorbance for each well was read at 405 nm with a microplate reader (Bio-Rad, Hercules, Calif.).

[2] = tested on: PLD from Streptomyces chromofuscus; experiment: PLD-catalyzed hydrolysis of pyrrole-modified PEs, monitored by LC-MS; format: biochemical
Method: The isolated lipids were hydrolyzed with PLD (Streptomyces chromofuscus) by a modification of the method described previously for hydrolysis of isolevuglandin modified PEs. Lipids were re-suspended in 50 μL of methanol. Then 450 μL of HBSS buffer (Thermo Scientific, Waltham, Mass.) supplemented with 5 mM CaCl2 and 0.1 mM EDTA was added. The mixture was incubated at 37° C. for 30 min, and then was sonicated for 10 min. The cloudy lipid mixture was passed through a 0.1 μm polycarbonate filter (20 times) for extrusion using an Avanti Mini- Extruder Set (Avanti Polar Lipids, Inc., Alabaster, Ala.) to generate a homogeneous unilammelar lipid vesicle solution. Then 280 units of PLD (Streptomyces chromofuscus) were added to each sample. The mixture was incubated under argon with gentle shaking at 37° C. overnight. The next day the samples were evaporated to dryness under a stream of nitrogen for 2 h. […]
To verify CEP-PEs are substrates of PLD, CEP-DPPE and d4-CEP-PE standards were treated with PLD from Streptomyces chromofuscus. Then the generation of CEP-ETN and d4-CEPETN was monitored by LC-MS/MS, respectively. […]
Total phospholipids isolated from biological samples by a modified Bligh & Dyer method, were prepared for phospholipolysis by conversion into small unilamellar vesicles (SUVs) by extrusion. […] The resulting product mixture was then analyzed by injection into the LC-MS/MS. […]

T1 sequence (Q9QUN7 with tags, fused parts or gaps limits assumed): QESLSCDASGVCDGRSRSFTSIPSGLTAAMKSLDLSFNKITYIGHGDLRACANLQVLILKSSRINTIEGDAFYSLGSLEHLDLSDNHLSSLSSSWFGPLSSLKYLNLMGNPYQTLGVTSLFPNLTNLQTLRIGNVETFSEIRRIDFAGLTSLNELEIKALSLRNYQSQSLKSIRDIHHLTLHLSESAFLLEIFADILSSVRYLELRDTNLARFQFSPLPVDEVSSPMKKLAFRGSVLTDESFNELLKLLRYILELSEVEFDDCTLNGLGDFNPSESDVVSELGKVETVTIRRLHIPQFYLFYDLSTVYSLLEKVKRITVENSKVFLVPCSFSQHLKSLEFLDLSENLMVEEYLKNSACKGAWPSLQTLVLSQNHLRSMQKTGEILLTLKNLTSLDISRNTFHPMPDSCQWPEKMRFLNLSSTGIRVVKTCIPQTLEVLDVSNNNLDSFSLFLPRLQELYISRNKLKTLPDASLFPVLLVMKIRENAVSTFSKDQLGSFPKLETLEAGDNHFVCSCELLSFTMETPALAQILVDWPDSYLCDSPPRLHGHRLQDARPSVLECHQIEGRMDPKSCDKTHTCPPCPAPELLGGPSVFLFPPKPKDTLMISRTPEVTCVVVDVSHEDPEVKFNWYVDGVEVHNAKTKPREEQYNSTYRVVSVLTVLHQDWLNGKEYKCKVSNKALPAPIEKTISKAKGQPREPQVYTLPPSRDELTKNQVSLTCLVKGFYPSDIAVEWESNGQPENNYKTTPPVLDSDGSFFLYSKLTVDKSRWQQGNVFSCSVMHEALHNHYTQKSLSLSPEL

Row | Compound | ability to induce tube formation by HUVECs after knockdown of TLR2 by TLR2 siRNA (HUVECs; HUVECs with transient TLR2 knockdown, 1-500 nM CEP-DPPE, 12 h) | tube formation by HUVECs (HUVECs; cultured HUVECs on Matrigel, 8 h, 0.5 μM CEP-DPPE, PBS or DPPE as negative control) | competition with CEP-HSA in binding with mTLR2-Fc protein [1] | release of CEP-ETN by PLD ([2]; control experiment, incubation for 1 h (data not shown)) | hydrolysis by PLD (Streptomyces chromofuscus) to the modified ethanolamine ([2]; standards treated with PLD, LC-MS/MS or LC-MS)
1 | CEP derivative of 1,2-dipalmitoyl-sn-glycero-3-phosphoethanolamine [CEP-DPPE] | abolished | induces tube formation | compete with CEP-HSA | quantitative release | readily hydrolyzed
2 | CCCCCCCCCCCCCCCC(=O)OC[C@H](COP(=O)(O)OCCN)OC(=O)CCCCCCCCCCCCCCC [DPPE, 1,2-Dipalmitoyl-sn-glycero-3-phosphoethanolamine, reference compound] | – | – | does not inhibit | – | –
